Results reported in PubChem BioAssay (NCI).
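Results reflect a 48-hour exposure of cells in 96-well plates to compound at five concentrations. At the TGI there is no net growth.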

Tests used:
Test in all cases: NCI tumour cell line growth inhibition, 48 h
786-0 renal = tested on: 786-0 renal
A498 renal = tested on: A498 renal
A549 NSCLC = tested on: A549 NSCLC
ACHN renal = tested on: ACHN renal
BT-549 breast = tested on: BT-549 breast
CAKI-1 renal = tested on: CAKI-1 renal
CCRF-CEM leukemia = tested on: CCRF-CEM leukemia
DU-145 prostate = tested on: DU-145 prostate
EKVX NSCLC = tested on: EKVX NSCLC
HCC-2998 colon = tested on: HCC-2998 colon
HCT-116 colon = tested on: HCT-116 colon
HCT-15 colon = tested on: HCT-15 colon
HL-60(TB) leukemia = tested on: HL-60(TB) leukemia
HOP-62 NSCLC = tested on: HOP-62 NSCLC
HOP-92 NSCLC = tested on: HOP-92 NSCLC
HS 578T breast = tested on: HS 578T breast
HT29 colon = tested on: HT29 colon
IGROV1 ovarian = tested on: IGROV1 ovarian
K-562 leukemia = tested on: K-562 leukemia
KM12 colon = tested on: KM12 colon
LOX IMVI melanoma = tested on: LOX IMVI melanoma
M14 melanoma = tested on: M14 melanoma
MALME-3M melanoma = tested on: MALME-3M melanoma
MCF7 breast = tested on: MCF7 breast
MDA-MB-435 = tested on: MDA-MB-435
MDA-N = tested on: MDA-N
MOLT-4 leukemia = tested on: MOLT-4 leukemia
NCI-H226 lung = tested on: NCI-H226 lung
NCI-H23 lung = tested on: NCI-H23 lung
NCI-H460 lung = tested on: NCI-H460 lung
NCI-H522 lung = tested on: NCI-H522 lung
NCI/ADR-RES ovarian = tested on: NCI/ADR-RES ovarian
OVCAR-3 ovarian = tested on: OVCAR-3 ovarian
OVCAR-4 ovarian = tested on: OVCAR-4 ovarian
OVCAR-5 ovarian = tested on: OVCAR-5 ovarian
OVCAR-8 ovarian = tested on: OVCAR-8 ovarian
PC-3 prostate = tested on: PC-3 prostate
RPMI-8226 leukemia = tested on: RPMI-8226 leukemia
SF-268 CNS = tested on: SF-268 CNS
SF-295 CNS = tested on: SF-295 CNS
SF-539 CNS = tested on: SF-539 CNS
SK-MEL-2 melanoma = tested on: SK-MEL-2 melanoma
SK-MEL-5 melanoma = tested on: SK-MEL-5 melanoma
SK-OV-3 ovarian = tested on: SK-OV-3 ovarian
SN12C renal = tested on: SN12C renal
SNB-19 CNS = tested on: SNB-19 CNS
SNB-75 CNS = tested on: SNB-75 CNS
SW-620 colon = tested on: SW-620 colon
TK-10 renal = tested on: TK-10 renal
U251 CNS = tested on: U251 CNS
UACC-257 melanoma = tested on: UACC-257 melanoma
UACC-62 melanoma = tested on: UACC-62 melanoma
UO-31 renal = tested on: UO-31 renal
COLO 205 colon = tested on: COLO 205 colon
MDA-MB-231 breast = tested on: MDA-MB-231 breast
RXF 393 renal = tested on: RXF 393 renal
SK-MEL-28 melanoma = tested on: SK-MEL-28 melanoma
SR leukemia = tested on: SR leukemia

Measured: TGI

COc1ccc(COC(=O)NNC(=O)C2CSC(c3ccccc3)N2C(C)=O)cc1 (stereo not drawn)
> 100 µM: 786-0 renal | A498 renal | A549 NSCLC | ACHN renal | BT-549 breast | CAKI-1 renal | CCRF-CEM leukemia | DU-145 prostate | EKVX NSCLC | HCC-2998 colon | HCT-116 colon | HCT-15 colon | HL-60(TB) leukemia | HOP-62 NSCLC | HOP-92 NSCLC | HS 578T breast | HT29 colon | IGROV1 ovarian | K-562 leukemia | KM12 colon | LOX IMVI melanoma | M14 melanoma | MALME-3M melanoma | MCF7 breast | MDA-MB-435 | MDA-N | MOLT-4 leukemia | NCI-H226 lung | NCI-H23 lung | NCI-H460 lung | NCI-H522 lung | NCI/ADR-RES ovarian | OVCAR-3 ovarian | OVCAR-4 ovarian | OVCAR-5 ovarian | OVCAR-8 ovarian | PC-3 prostate | RPMI-8226 leukemia | SF-268 CNS | SF-295 CNS | SF-539 CNS | SK-MEL-2 melanoma | SK-MEL-5 melanoma | SK-OV-3 ovarian | SN12C renal | SNB-19 CNS | SNB-75 CNS | SW-620 colon | TK-10 renal | U251 CNS | UACC-257 melanoma | UACC-62 melanoma | UO-31 renal

Cc1ccc(-n2c(C)n[nH]c2=O)cc1
> 100 µM: 786-0 renal | A549 NSCLC | ACHN renal | BT-549 breast | CCRF-CEM leukemia | COLO 205 colon | DU-145 prostate | EKVX NSCLC | HCC-2998 colon | HCT-116 colon | HCT-15 colon | HOP-62 NSCLC | HOP-92 NSCLC | HT29 colon | IGROV1 ovarian | K-562 leukemia | KM12 colon | LOX IMVI melanoma | M14 melanoma | MCF7 breast | MDA-MB-231 breast | MDA-MB-435 | MDA-N | MOLT-4 leukemia | NCI-H23 lung | NCI-H522 lung | NCI/ADR-RES ovarian | OVCAR-3 ovarian | OVCAR-5 ovarian | OVCAR-8 ovarian | PC-3 prostate | RPMI-8226 leukemia | RXF 393 renal | SF-268 CNS | SF-295 CNS | SF-539 CNS | SK-MEL-2 melanoma | SK-MEL-28 melanoma | SK-MEL-5 melanoma | SK-OV-3 ovarian | SN12C renal | SNB-19 CNS | SNB-75 CNS | SR leukemia | SW-620 colon | TK-10 renal | U251 CNS | UACC-257 melanoma | UACC-62 melanoma | UO-31 renal
